Experimental data published in patent US20060069132A1, “Azolecarboxamide herbicides” (priority 2004, published 2006).

How the values were obtained:
large crabgrass [1] = experiment: Test B pre-/postemergence herbicide test; format: in vivo, Digitaria sanguinalis
How it was run: (§1)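 Response was scored visually 13 to 15 days after treatment against untreated greenhouse controls, 0 meaning no effect and 100 complete control. Formulations (solvent mixture plus surfactant) went onto soil after planting, onto foliage of 1- to 4-leaf plants, and onto 2-leaf plants in a flooded paddy set including rice and barnyardgrass.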

rice [2] = experiment: Test B pre-/postemergence herbicide test; format: in vivo, Oryza sativa; conditions: preemergence, 125 g ai/ha; 0 to 100 scale, 0 is no effect, 100 is complete control
How it was run: as §1

giant foxtail [3] = experiment: Test A pre-/postemergence herbicide test; format: in vivo, Setaria faberi; conditions: for Plant response rating, Foxtail, Giant: Postemergence; for Foxtail, Giant plant response rating: Preemergence
How it was run: (§2)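 Pre: seeded sandy loam, directed soil spray, compound in non-phytotoxic solvent + surfactant. Post: 1–2-leaf plants (2–10 cm), sprayed to runoff. Greenhouse ~10 d; visual injury vs untreated, 0–100 scale.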

Surinam grass = experiment: Test B pre-/postemergence herbicide test; format: in vivo, Urochloa decumbens
How it was run: as §1

wheat = experiment: Test B postemergence herbicide test; format: in vivo, Triticum aestivum; set-up: key to Wheat plant response rating: 0 = no effect, 100 = complete control; conditions: scale 0 (no effect) to 100 (complete control)
How it was run: (§3)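 Greenhouse test; postemergence application to plants at 1–4 leaves (2–18 cm); paddy species at 2 leaves; evaluated visually vs controls at 13–15 days; scale 0–100 (100 = complete control).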

corn = experiment: Test B pre-/postemergence herbicide test; format: in vivo, Zea mays
How it was run: as §1

giant foxtail [4] = experiment: Test B pre-/postemergence herbicide test; format: in vivo, Setaria faberi
How it was run: as §1

ducksalad = experiment: Test B flooded paddy test; format: in vivo, Heteranthera limosa; conditions: 1000 g ai/ha, visual rating, scale 0 to 100 (0 no effect, 100 complete control), 13 to 15 days
How it was run: (§4)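 Read-out: visual comparison with controls, scored 0 to 100, where 100 means complete control and 0 no effect. Formulated chemicals were applied postemergence to plants 2–18 cm tall (1- to 4-leaf), or to flooded-paddy plants at the 2-leaf stage, then held 13 to 15 days under glass.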

wild oat = experiment: Test B postemergence herbicide test; format: in vivo, Avena fatua; conditions: scale 0 (no effect) to 100 (complete control)
How it was run: as §3

barnyardgrass [5] = experiment: Test B pre-/postemergence herbicide test; format: in vivo, Echinochloa crus-galli
How it was run: (§5)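 Pre: seeds sown, then sprayed. Post: 1–4-leaf plants (2–18 cm) sprayed at the same time. Paddy: flooded, treated at 2-leaf stage. Formulation: non-phytotoxic solvent with surfactant. Greenhouse 13–15 days; visual 0–100 score relative to controls.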

morningglory [6] = experiment: Test A pre-/postemergence herbicide test; format: in vivo, Ipomoea spp.; conditions: for Plant response rating, Morningglory: Postemergence; for Morningglory plant response rating: Preemergence
How it was run: as §2

morningglory [7] = experiment: Test B pre-/postemergence herbicide test; format: in vivo, Ipomoea coccinea
How it was run: as §5

cocklebur = experiment: Test B pre-/postemergence herbicide test; format: in vivo, Xanthium strumarium
How it was run: as §5

pigweed = experiment: Test B pre-/postemergence herbicide test; format: in vivo, Amaranthus retroflexus
How it was run: as §1

lambsquarters = experiment: Test B pre-/postemergence herbicide test; format: in vivo, Chenopodium album
How it was run: as §1

large crabgrass [8] = experiment: Test A pre-/postemergence herbicide test; format: in vivo, Digitaria sanguinalis; conditions: for Plant response rating, Crabgrass, Large: Postemergence; for Crabgrass, Large plant response rating: Preemergence
How it was run: as §2

redroot pigweed = experiment: Test A pre-/postemergence herbicide test; format: in vivo, Amaranthus retroflexus; conditions: for Plant response rating, Pigweed: Postemergence; for Pigweed plant response rating: Preemergence
How it was run: as §2

barnyardgrass [9] = experiment: Test A pre-/postemergence herbicide test; format: in vivo, Echinochloa crus-galli; conditions: for Plant response rating, Barnyardgrass: Postemergence; for Barnyardgrass plant response rating: Preemergence
How it was run: as §2

blackgrass = experiment: Test B postemergence herbicide test; format: in vivo, Alopecurus myosuroides; conditions: scale 0 (no effect) to 100 (complete control)
How it was run: as §4

velvetleaf [10] = experiment: Test B pre-/postemergence herbicide test; format: in vivo, Abutilon theophrasti
How it was run: as §1

velvetleaf [11] = experiment: Test A pre-/postemergence herbicide test; format: in vivo, Abutilon theophrasti; conditions: for Velvetleaf plant response rating: Preemergence, visual rating, 0 to 100 scale (0 no effect, 100 complete control)
How it was run: as §2

rice [12] = experiment: Test B flooded paddy test; format: in vivo, Oryza sativa; conditions: 1000 g ai/ha, visual rating, scale 0 to 100 (0 no effect, 100 complete control), 13 to 15 days
How it was run: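 Postemergence plants were sprayed with formulated test chemicals at 2 to 18 cm height (1- to 4-leaf stage); paddy species were grown to the 2-leaf stage. After 13 to 15 days in a greenhouse, injury was rated visually against untreated controls on a 0–100 scale (0 = no effect, 100 = complete control).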

barnyardgrass [13] = experiment: Test B flooded paddy test; format: in vivo, Echinochloa crus-galli; conditions: 1000 g ai/ha, visual rating, scale 0 to 100 (0 no effect, 100 complete control), 13 to 15 days
How it was run: as §4

[14] = tested on: small flower umbrella sedge; experiment: Test B flooded paddy test; format: in vivo, Cyperus difformis; conditions: 1000 g ai/ha, visual rating, scale 0 to 100 (0 no effect, 100 complete control), 13 to 15 days
How it was run: as §4

[15] = Postemergence, 500 g ai/ha, visual rating after 13 to 15 days, scale 0 (no effect) to 100 (complete control)
[16] = Preemergence, 500 g ai/ha, scale 0 to 100
[17] = postemergence, 125 g ai/ha, visual rating, scale 0 (no effect) to 100 (complete control)
[18] = preemergence, 125 g ai/ha, 0 to 100 scale, 0 is no effect, 100 is complete control
[19] = 500 g ai/ha, 0 to 100 scale, 0 no effect, 100 complete control
[20] = 2000 g ai/ha, 0 to 100 scale, 0 no effect, 100 complete control
[21] = 500 g ai/ha, visual rating, 0 to 100 scale (0 no effect, 100 complete control)
[22] = Postemergence, 500 g ai/ha, visual rating after 13 to 15 days
[23] = postemergence, 125 g ai/ha, visual rating

CCn1nc(C(C)(C)C)cc1C(=O)Nc1cc(C(=O)OC(C)(C)C)ccc1F [Compound 71]
20: Plant response rating, Pigweed (pigweed; [15]) | Plant response rating, Lambsquarters (lambsquarters; [15])
0: Crabgrass, Large plant response rating (large crabgrass [1]; [16]) | Crabgrass, Large plant response rating (large crabgrass [1]; [17]) | Plant response rating, Crabgrass, Large (large crabgrass [1]; [18]) | Plant response rating, Rice (rice [2]) | Plant response rating, Foxtail, Giant (giant foxtail [3]; [19]) | Plant response rating, Foxtail, Giant (giant foxtail [3]; [20]) | Foxtail, Giant plant response rating (giant foxtail [3]; [21]) | Foxtail, Giant plant response rating (giant foxtail [3]; [20]) | Surinam Grass plant response rating (Surinam grass; [17]) | Plant response rating, Surinam Grass (Surinam grass; [18]) | Plant response rating, Wheat (wheat; [22]) | Wheat plant response rating (wheat; [23]) | Corn plant response rating (corn; [16]) | Corn plant response rating (corn; [17]) | Plant response rating, Corn (corn; [18]) | Foxtail, Giant plant response rating (giant foxtail [4]; [16]) | Foxtail, Giant plant response rating (giant foxtail [4]; [17]) | Plant response rating, Foxtail, Giant (giant foxtail [4]; [18]) | Ducksalad plant response rating (ducksalad) | Plant response rating, Oat, Wild (wild oat; [22]) | Oat, Wild plant response rating (wild oat; [23]) | Barnyardgrass plant response rating (barnyardgrass [5]; [16]) | Barnyardgrass plant response rating (barnyardgrass [5]; [17]) | Plant response rating, Barnyardgrass (barnyardgrass [5]; [18]) | Plant response rating, Morningglory (morningglory [6]; [19]) | Plant response rating, Morningglory (morningglory [6]; [20]) | Morningglory plant response rating (morningglory [6]; [21]) | Morningglory plant response rating (morningglory [6]; [20]) | Plant response rating, Morningglory (morningglory [7]; [15]) | Morningglory plant response rating (morningglory [7]; [17]) | Plant response rating, Morningglory (morningglory [7]; [18]) | Plant response rating, Cocklebur (cocklebur; [15]) | Cocklebur plant response rating (cocklebur; [16]) | Cocklebur plant response rating (cocklebur; [17]) | Plant response rating, Cocklebur (cocklebur; [18]) | Pigweed plant response rating (pigweed; [17]) | Plant response rating, Pigweed (pigweed; [18]) | Lambsquarters plant response rating (lambsquarters; [17]) | Plant response rating, Lambsquarters (lambsquarters; [18]) | Plant response rating, Crabgrass, Large (large crabgrass [8]; [19]) | Plant response rating, Crabgrass, Large (large crabgrass [8]; [20]) | Crabgrass, Large plant response rating (large crabgrass [8]; [21]) | Crabgrass, Large plant response rating (large crabgrass [8]; [20]) | Plant response rating, Pigweed (redroot pigweed; [19]) | Plant response rating, Pigweed (redroot pigweed; [20]) | Pigweed plant response rating (redroot pigweed; [21]) | Pigweed plant response rating (redroot pigweed; [20]) | Plant response rating, Barnyardgrass (barnyardgrass [9]; [19]) | Plant response rating, Barnyardgrass (barnyardgrass [9]; [20]) | Barnyardgrass plant response rating (barnyardgrass [9]; [21]) | Barnyardgrass plant response rating (barnyardgrass [9]; [20]) | Plant response rating, Blackgrass (blackgrass; [22]) | Blackgrass plant response rating (blackgrass; [23]) | Plant response rating, Velvetleaf (velvetleaf [10]; [15]) | Velvetleaf plant response rating (velvetleaf [10]; [17]) | Plant response rating, Velvetleaf (velvetleaf [10]; [18]) | Plant response rating, Velvetleaf (velvetleaf [11]; Postemergence, 2000 g ai/ha, 0 to 100 scale, 0 no effect, 100 complete control) | Velvetleaf plant response rating (velvetleaf [11]; 500 g ai/ha) | Velvetleaf plant response rating (velvetleaf [11]; 2000 g ai/ha) | Rice plant response rating (rice [12]) | Barnyardgrass plant response rating (barnyardgrass [13]) | Sedge, Umbrella plant response rating [14]
10: Plant response rating, Crabgrass, Large (large crabgrass [1]; [15]) | Plant response rating, Surinam Grass (Surinam grass; [15]) | Plant response rating, Corn (corn; [15]) | Plant response rating, Foxtail, Giant (giant foxtail [4]; [15]) | Plant response rating, Barnyardgrass (barnyardgrass [5]; [15])
